Values quoted from earlier work, collected in patent publication US9801890B2, “Medical methods utilising high purity diaminophenothiazinium compounds” (WisTa Laboratories Ltd., priority 2004, dated 2017).

Tests used:
viruses = settings: in vitro
HIV = settings: laboratory tests
West Nile Virus = settings: laboratory tests

Question: For CN(C)c1ccc2nc3ccc(N(C)C)cc3[s+]c2c1.[Cl-] [MTC, 3,7-bis(dimethylamino) phenothiazin-5-ium chloride], which viricidal activity (viruses) is on record?
Answer: The viricidal activity was “potent viricidal activity”.

Question: What about the effectiveness against virus (HIV) of the same compound?
Answer: Its effectiveness against virus is “effective”.

Question: What about the effectiveness against virus (West Nile Virus) of the same compound?
Answer: Its effectiveness against virus is “effective”.
